Data: ChEMBL document CHEMBL1130483, “The synthesis and evaluation of functionalized estratropones: Potent inhibitors of tubulin polymerization” (Bioorg Med Chem Lett, 1997)

Molecular target: Tubulin (Bos taurus, UniProt Q6B856+Q862L2+Q862F3)
Test: Compound was evaluated for inhibition of tubulin polymerization using purified bovine brain tubulin, activity expressed as IC50
Type: functional, tissue-based

Row | IC50 | SMILES
1 | 14.9 µM | C[C@]12CC[C@@H]3c4cc(O)c(=O)ccc4CC[C@H]3[C@@H]1CC[C@@H]2O
2 | 19.4 µM | C/N=c1/cc2c(ccc1O)[C@H]1CC[C@]3(C)[C@@H](O)CC[C@H]3[C@@H]1CC2
3 | 14.3 µM | CN(C)c1ccc2c(cc1=O)CC[C@@H]1[C@@H]2CC[C@]2(C)[C@@H](O)CC[C@@H]12
4 | 9.2 µM | C[C@]12CC[C@@H]3c4ccc(=O)c(N)cc4CC[C@H]3[C@@H]1CC[C@@H]2O
5 | 14.4 µM | C[C@]12CC[C@@H]3c4ccc(=N)c(O)cc4CC[C@H]3[C@@H]1CC[C@@H]2O
6 | 60.7 µM | C/N=c1\ccc2c(cc1O)CC[C@@H]1[C@@H]2CC[C@]2(C)[C@@H](O)CC[C@@H]12
7 | 46.8 µM | CN(C)c1cc2c(ccc1=O)[C@H]1CC[C@]3(C)[C@@H](O)CC[C@H]3[C@@H]1CC2
8 | 52 µM | C[C@]12CC[C@@H]3c4ccc([N+](=O)[O-])c(=O)cc4CC[C@H]3[C@@H]1CC[C@@H]2O
9 | 16.5 µM | C[C@]12CC[C@@H]3c4cc(N)c(=O)ccc4CC[C@H]3[C@@H]1CC[C@@H]2O
10 | 22.8 µM | C[C@]12CC[C@@H]3c4ccc(=O)c(O)cc4CC[C@H]3[C@@H]1CC[C@@H]2O
11 | 14.2 µM | C=Cc1ccc2c(cc1=O)CC[C@@H]1[C@@H]2CC[C@]2(C)[C@@H](O)CC[C@@H]12
